Data as given in EPA's ToxRefDB 2.

How the values were obtained:
rat [1] = conditions: Multigenerational reproductive toxicity study, sprague dawley, Oral, Feed, dose end: 2 generation
mouse [2] = conditions: Subchronic oral toxicity in rodents, cd1, Feed, dose end: 13 week, group: systemic
rat [3] = conditions: Combined chronic toxicity/carcinogenicity, sprague dawley, Oral, Feed, dose end: 104 week, group: systemic
rat [4] = conditions: Subchronic oral toxicity in rodents, sprague dawley, Feed, dose end: 13 week, group: systemic, systemic / clinical chemistry / globulins / globulins + systemic / clinical chemistry / protein / protein + systemic / organ weight / liver…
rabbit [5] = conditions: Prenatal developmental toxicity study, other, Oral, Gavage/Intubation, dose end: 18 GD
dog [6] = conditions: Subchronic oral toxicity in nonrodent, beagle, Feed, dose end: 13 week, group: systemic
rat [7] = conditions: Subchronic oral toxicity in rodents, Sprague Dawley, Feed, dose end: 14 week, group: systemic
rat [8] = conditions: Developmental neurotoxicity study, sprague dawley, Oral, Gavage/Intubation, dose end: 72 PND, group: cannot be grouped
rat [9] = conditions: Multigenerational reproductive toxicity study, sprague dawley, Oral, Gavage/Intubation, dose end: 2 generation
rat [10] = conditions: Combined chronic toxicity/carcinogenicity, Crl: CD (SD) IGS BR, Oral, Feed, dose end: 104 week, group: systemic
mouse [11] = conditions: Carcinogenicity, cd1, Oral, Feed, dose end: 78 week, group: systemic
rabbit [12] = conditions: Prenatal developmental toxicity study, other, Oral, Gavage/Intubation, dose end: 27 GD
rat [13] = conditions: Multigenerational reproductive toxicity study, sprague dawley, Oral, Feed, dose end: 2 generation; remark: listed apart in the source
rat [14] = conditions: Combined chronic toxicity/carcinogenicity, sprague dawley, Oral, Feed, dose end: 104 week, group: systemic; remark: listed apart in the source
dog [15] = conditions: Chronic toxicity; beagle; Oral; Capsule; dose end: 12 month; group: systemic; systemic / clinical chemistry / alkaline phosphatase (alp/alk) / alkaline phosphatase (alp/alk) + systemic / organ weight / liver / absolute…
rat [16] = conditions: Subchronic oral toxicity in rodents, sprague dawley, Feed, dose end: 90 day, group: systemic, systemic / in life observation / body weight / body weight gain + systemic / in life observation / food consumption / food consumption + …
mouse [17] = conditions: Subchronic oral toxicity in rodents, cd1, Feed, dose end: 90 day, group: systemic
[18] = group: offspring, developmental / offspring survival late / viability index / viability index + systemic / in life observation / body weight / offspring (pup…
[19] = group: parental, systemic / organ weight / adrenal gland / relative to body weight + systemic / organ weight / adrenal gland / relative to brain weight
[20] = group: parental, systemic / organ weight / adrenal gland / relative to body weight + systemic / organ weight / adrenal gland / relative to brain weight + …
[21] = systemic / clinical chemistry / alkaline phosphatase (alp/alk) / alkaline phosphatase (alp/alk) + systemic / organ weight / liver / absolute…
[22] = systemic / in life observation / clinical signs / tooth-malocclusion
[23] = group: developmental, developmental / developmental malformation / bone / full supernumerary
[24] = group: maternal, systemic / in life observation / body weight / body weight gain + systemic / in life observation / food consumption / food consumption + …
[25] = systemic / clinical chemistry / triglycerides / triglycerides + systemic / in life observation / clinical signs / mucoid stools + systemic…
[26] = systemic / in life observation / clinical signs / vomiting
[27] = systemic / clinical chemistry / aspartate aminotransferase (ast/sgot) / aspartate aminotransferase (ast/sgot) + systemic / clinical …
[28] = systemic / in life observation / body weight / body weight + systemic / in life observation / body weight / body weight gain + systemic / in…
[29] = group: offspring, developmental / developmental landmark / eye opening / eye opening + developmental / developmental landmark / pinna unfolding / pinna …
[30] = group: parental, systemic / in life observation / body weight / body weight + systemic / in life observation / body weight / body weight gain + systemic / in…
[31] = group: reproductive, reproductive / offspring survival early / litter viability other / total litter loss
[32] = group: reproductive, reproductive / reproductive performance / gestational length / gestational length + reproductive / reproductive performance / implantations…
[33] = systemic / in life observation / body weight / body weight + systemic / organ weight / liver / relative to body weight + systemic / …
[34] = group: developmental, systemic / in life observation / body weight / fetal weight
[35] = group: maternal, reproductive / reproductive performance / aborted / aborted + reproductive / reproductive performance / premature delivery / premature …
[36] = group: offspring, systemic / in life observation / body weight / offspring (pup) weight + systemic / in life observation / body weight / offspring (pup) …
[37] = systemic / in life observation / body weight / body weight + systemic / in life observation / body weight / body weight gain + systemic / …
[38] = systemic / pathology microscopic / mammary gland / adenoacanthoma
[39] = systemic / clinical chemistry / triglycerides / triglycerides

**Q.** For `CCOc1cc(C(C)(C)C)ccc1C1COC(c2c(F)cccc2F)=N1` (configuration not stated) [Etoxazole], which LOAEL (rat [1]; group: offspring, developmental / offspring survival late / viability index / viability index) is on record?
**A.** 157 mg/kg/day

**Q.** And the LEL (rat [1]; [18])?
**A.** 157 mg/kg/day

**Q.** And the NEL (rat [1]; [18])?
**A.** 31.6 mg/kg/day

**Q.** And the NOAEL (rat [1]; [18])?
**A.** 31.6 mg/kg/day

**Q.** And the NEL (rat [1]; [19])?
**A.** 33.4 mg/kg/day

**Q.** What about the NOAEL (rat [1]; [19]) of the same molecule?
**A.** 33.4 mg/kg/day

**Q.** And the LEL (rat [1]; [20])?
**A.** 139 mg/kg/day

**Q.** And the LOAEL (rat [1]; [20])?
**A.** 139 mg/kg/day

**Q.** And the LOAEL (mouse [2]; [21])?
**A.** 878 mg/kg/day

**Q.** What about the NEL (mouse [2]; [21]) of the same molecule?
**A.** 55.1 mg/kg/day

**Q.** And the NOAEL (mouse [2]; [21])?
**A.** 214 mg/kg/day

**Q.** What about the LEL (mouse [2]; systemic / organ weight / liver / absolute + systemic / organ weight / liver / relative to body weight + systemic / pathology microscopic / …) of the same molecule?
**A.** 214 mg/kg/day

**Q.** What about the LOAEL (rat [3]; systemic / in life observation / clinical signs / tooth nos) of the same molecule?
**A.** 187 mg/kg/day

**Q.** And the NOAEL (rat [3]; systemic / in life observation / clinical signs / tooth nos + systemic / hematology / blood clotting / blood clotting - activated partial …)?
**A.** 1.83 mg/kg/day

**Q.** What about the LEL (rat [3]; [22]) of the same molecule?
**A.** 2.07 mg/kg/day

**Q.** And the NEL (rat [3]; [22])?
**A.** < 2.07 mg/kg/day

**Q.** What about the LEL (rat [4]) of the same molecule?
**A.** 300 mg/kg/day

**Q.** And the LOAEL (rat [4])?
**A.** 300 mg/kg/day

**Q.** And the NEL (rat [4])?
**A.** < 300 mg/kg/day

**Q.** What about the NOAEL (rat [4]) of the same molecule?
**A.** < 300 mg/kg/day

**Q.** And the LEL (rabbit [5]; [23])?
**A.** 1000 mg/kg/day

**Q.** What about the LOAEL (rabbit [5]; [23]) of the same molecule?
**A.** 1000 mg/kg/day

**Q.** What about the NEL (rabbit [5]; [23]) of the same molecule?
**A.** 200 mg/kg/day

**Q.** What about the NOAEL (rabbit [5]; [23]) of the same molecule?
**A.** 200 mg/kg/day

**Q.** And the LEL (rabbit [5]; [24])?
**A.** 1000 mg/kg/day

**Q.** And the LOAEL (rabbit [5]; [24])?
**A.** 1000 mg/kg/day

**Q.** And the NEL (rabbit [5]; [24])?
**A.** 200 mg/kg/day

**Q.** And the NOAEL (rabbit [5]; [24])?
**A.** 200 mg/kg/day

**Q.** And the LOAEL (dog [6]; [25])?
**A.** 53.7 mg/kg/day

**Q.** What about the NOAEL (dog [6]; [25]) of the same molecule?
**A.** 5.33 mg/kg/day

**Q.** What about the LEL (dog [6]; [26]) of the same molecule?
**A.** 5.33 mg/kg/day

**Q.** And the NEL (dog [6]; [26])?
**A.** < 5.33 mg/kg/day

**Q.** Which results are given for `O=S(=O)([O-])C(F)(F)C(F)(F)C(F)(F)C(F)(F)C(F)(F)C(F)(F)C(F)(F)C(F)(F)F.[K+]` [PFOS-K]?
**A.** NEL (rat [7]; systemic / clinical chemistry / alanine aminotransferase (alt/sgpt) / alanine aminotransferase (alt/sgpt) + systemic / clinical chemistry / …): 0.1 mg/kg/day; LOAEL (rat [7]; [27]): > 1 mg/kg/day; NOAEL (rat [7]; [27]): ≥ 1 mg/kg/day; LEL (rat [7]; systemic / pathology microscopic / liver / hypertrophy + systemic / pathology microscopic / liver / vacuolization): 0.25 mg/kg/day; LOAEL (rat [8]; systemic / in life observation / body weight / body weight): 1 mg/kg/day; LEL (rat [8]; [28]): 1 mg/kg/day; NEL (rat [8]; [28]): 0.3 mg/kg/day; NOAEL (rat [8]; [28]): 0.3 mg/kg/day; LEL (rat [9]; [29]): 1.6 mg/kg/day; LOAEL (rat [9]; [29]): > 3.2 mg/kg/day; NEL (rat [9]; [29]): 0.4 mg/kg/day; NOAEL (rat [9]; [29]): ≥ 3.2 mg/kg/day; LOAEL (rat [9]; [30]): > 3.2 mg/kg/day; NEL (rat [9]; [30]): 0.1 mg/kg/day; NOAEL (rat [9]; [30]): ≥ 3.2 mg/kg/day; LEL (rat [9]; group: parental, systemic / in life observation / body weight / body weight gain): 0.4 mg/kg/day; LEL (rat [9]; [31]): 1.6 mg/kg/day; NEL (rat [9]; [31]): 0.4 mg/kg/day; LOAEL (rat [9]; [32]): > 3.2 mg/kg/day; NOAEL (rat [9]; [32]): ≥ 3.2 mg/kg/day; LOAEL (rat [10]; [33]): > 1 mg/kg/day; NOAEL (rat [10]; [33]): ≥ 1 mg/kg/day; NEL (rat [10]; systemic / pathology microscopic / liver / adenoma + systemic / in life observation / body weight / body weight + systemic / organ weight / …): 0.025 mg/kg/day; LEL (rat [10]; systemic / pathology microscopic / liver / degeneration + systemic / pathology microscopic / liver / eosinophilic focus): 0.1 mg/kg/day

**Q.** For `FC(F)(F)c1ccc(OCCCOc2c(Cl)cc(OCC=C(Cl)Cl)cc2Cl)nc1` [Pyridalyl], which LEL (mouse [11]; systemic / hematology / mean corpuscular (cell) volume (mcv) / mean corpuscular (cell) volume (mcv)) is on record?
**A.** 5.04 mg/kg/day

**Q.** And the NEL (mouse [11]; systemic / hematology / mean corpuscular (cell) volume (mcv) / mean corpuscular (cell) volume (mcv) + systemic / hematology / lymphocyte / …)?
**A.** 1.57 mg/kg/day

**Q.** What about the LOAEL (mouse [11]; [28]) of the same molecule?
**A.** 99 mg/kg/day

**Q.** And the NOAEL (mouse [11]; [28])?
**A.** 4.78 mg/kg/day

**Q.** And the LEL (rabbit [12]; [34])?
**A.** 150 mg/kg/day

**Q.** What about the LOAEL (rabbit [12]; [34]) of the same molecule?
**A.** 150 mg/kg/day

**Q.** What about the NEL (rabbit [12]; [34]) of the same molecule?
**A.** 50 mg/kg/day

**Q.** What about the NOAEL (rabbit [12]; [34]) of the same molecule?
**A.** 50 mg/kg/day

**Q.** What about the LEL (rabbit [12]; [35]) of the same molecule?
**A.** 150 mg/kg/day

**Q.** And the LOAEL (rabbit [12]; [35])?
**A.** 150 mg/kg/day

**Q.** What about the NEL (rabbit [12]; [35]) of the same molecule?
**A.** 50 mg/kg/day

**Q.** And the NOAEL (rabbit [12]; [35])?
**A.** 50 mg/kg/day

**Q.** What about the LOAEL (rat [13]; [36]) of the same molecule?
**A.** 83.7 mg/kg/day

**Q.** What about the NEL (rat [13]; [36]) of the same molecule?
**A.** 3.4 mg/kg/day

**Q.** What about the NOAEL (rat [13]; [36]) of the same molecule?
**A.** 17 mg/kg/day

**Q.** What about the LEL (rat [13]; group: offspring, systemic / organ weight / thymus / nos) of the same molecule?
**A.** 17 mg/kg/day

**Q.** And the LOAEL (rat [13]; [30])?
**A.** 68.7 mg/kg/day

**Q.** And the NOAEL (rat [13]; [30])?
**A.** 13.8 mg/kg/day

**Q.** And the LEL (rat [13]; group: parental, systemic / organ weight / testes / absolute)?
**A.** 17 mg/kg/day

**Q.** And the NEL (rat [13]; group: parental, systemic / organ weight / testes / absolute + systemic / in life observation / body weight / body weight + systemic / in life observation / …)?
**A.** 3.4 mg/kg/day

**Q.** And the LOAEL (rat [14]; [28])?
**A.** 17.1 mg/kg/day

**Q.** What about the NOAEL (rat [14]; [37]) of the same molecule?
**A.** 3.4 mg/kg/day

**Q.** What about the LEL (rat [14]; [38]) of the same molecule?
**A.** 1.23 mg/kg/day

**Q.** And the NEL (rat [14]; [38])?
**A.** < 1.23 mg/kg/day

**Q.** And the LEL (dog [15])?
**A.** 80 mg/kg/day

**Q.** What about the LOAEL (dog [15]) of the same molecule?
**A.** > 80 mg/kg/day

**Q.** And the NEL (dog [15])?
**A.** 20 mg/kg/day

**Q.** And the NOAEL (dog [15])?
**A.** ≥ 80 mg/kg/day

**Q.** What about the LEL (rat [16]) of the same molecule?
**A.** 56 mg/kg/day

**Q.** What about the LOAEL (rat [16]) of the same molecule?
**A.** 56 mg/kg/day

**Q.** What about the NEL (rat [16]) of the same molecule?
**A.** 5.56 mg/kg/day

**Q.** And the NOAEL (rat [16])?
**A.** 5.56 mg/kg/day

**Q.** And the LEL (mouse [17]; [39])?
**A.** 9.5 mg/kg/day

**Q.** And the NEL (mouse [17]; [39])?
**A.** < 9.5 mg/kg/day

**Q.** And the LOAEL (mouse [17]; [37])?
**A.** 378 mg/kg/day

**Q.** And the NOAEL (mouse [17]; [37])?
**A.** 81.7 mg/kg/day
